Measurements reported in US10525055B2, “Opioid receptor antagonist prodrugs” (Nirsum Laboratories, Inc., priority 2017, dated 2020).

What was measured:
[1] = Equilibrium solubility in water; conditions: obs. temp. 40 °C
[2] = Solubility determination in oil (cottonseed oil, sesame oil); conditions: heating temp. 60 °C
Description: A known amount of test substance (˜40 mg) was weighed into the vial, 100 μL of oil was added and heated to 60° C. and then system was slurried to reach equilibrium. […] Extra oil was added into the vial once compound precipitated out and then the system was re-equilibrated at 1000 rpm at room temperature (25° C.). Final concentration was determined by HPLC method as described below in Table 6a and 6b.

[3] = Plasma stability assay, dog plasma; format: in vitro ADME; conditions: 37° C., 2 μM; for % remaining at time point in minutes, 15 min: 15 min (as headed); for % remaining at time point in minutes, 120 min: 120 min (as headed); for % remaining at time point in minutes, 480 min: 480 min (as headed); for % remaining at time point in minutes, 1440 min: 1440 min (as headed)
Description: (§1) Plasma stability determination of the test compounds in rat, dog, cynomolgus monkey and human plasma is performed using HPLC-MS. For rat, incubations are carried out in 96-well polypropylene plates in 5 aliquots of 70 μL each (one for each time point). […] Five time points are analyzed (0, 15, 120, 480 and 1440 min). […] All incubations are performed in duplicates. The samples are analyzed by HPLC-MS. The percentage of parent compound remaining after incubation in plasma is determined.

[4] = Plasma stability assay, monkey plasma; format: in vitro ADME, cynomolgus monkey; conditions: 37° C., 2 μM; for % remaining at time point in minutes, 15 min: 15 min (as headed); for % remaining at time point in minutes, 120 min: 120 min (as headed); for % remaining at time point in minutes, 480 min: 480 min (as headed); for % remaining at time point in minutes, 1440 min: 1440 min (as headed)
Description: as §1

[5] = Liver S9 fraction stability, dog; format: in vitro ADME; conditions: 1.0 mg/ml S9 protein, 2 μM, 37° C.
Description: (§2) Liver S9 fraction stability determination of the test compounds in dog, cynomolgus monkey and human is performed using HPLC-MS. Test compound (2 μM, 0.1% DMSO, 1% Methanol final concentration) was assessed for stability in a 50 μl phosphate buffer containing 1.0 mg/ml S9 protein from each of the three species and 5 mM D-saccharic acid-1, 4-lactone. Samples were incubated at 37° C. for 60 minutes and the % compound remaining was assessed.

[6] = Liver S9 fraction stability, monkey; format: in vitro ADME, cynomolgus monkey; conditions: 1.0 mg/ml S9 protein, 2 μM, 37° C.
Description: as §2

[7] = biological target: T1, KOR (Homo sapiens, UniProt P41145); assay: Opioid receptor binding assay, KOR ([3H]Diprenorphine); conditions: KOR, MaxDose 10000 nM
T1 construct: expressed in transfected cells; membranes prepared from them
T1 sequence (P41145 whole entry): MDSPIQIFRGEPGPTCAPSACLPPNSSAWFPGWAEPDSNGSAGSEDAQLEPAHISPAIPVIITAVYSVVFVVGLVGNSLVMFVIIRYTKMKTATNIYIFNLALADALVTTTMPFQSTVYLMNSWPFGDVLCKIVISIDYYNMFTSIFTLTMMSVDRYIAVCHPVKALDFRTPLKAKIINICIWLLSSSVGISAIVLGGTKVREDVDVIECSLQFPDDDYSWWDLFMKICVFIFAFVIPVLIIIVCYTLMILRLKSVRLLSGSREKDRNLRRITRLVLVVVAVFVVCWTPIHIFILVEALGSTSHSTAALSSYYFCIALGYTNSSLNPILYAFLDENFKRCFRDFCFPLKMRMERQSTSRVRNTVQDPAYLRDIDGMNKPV

[8] = biological target: T2, MOR (Homo sapiens, UniProt P35372); assay: Opioid receptor binding assay, MOR ([3H]DAMGO); conditions: MOR, MaxDose 10000 nM
T2 construct: expressed in transfected cells; membranes prepared from them
T2 sequence (P35372 whole entry): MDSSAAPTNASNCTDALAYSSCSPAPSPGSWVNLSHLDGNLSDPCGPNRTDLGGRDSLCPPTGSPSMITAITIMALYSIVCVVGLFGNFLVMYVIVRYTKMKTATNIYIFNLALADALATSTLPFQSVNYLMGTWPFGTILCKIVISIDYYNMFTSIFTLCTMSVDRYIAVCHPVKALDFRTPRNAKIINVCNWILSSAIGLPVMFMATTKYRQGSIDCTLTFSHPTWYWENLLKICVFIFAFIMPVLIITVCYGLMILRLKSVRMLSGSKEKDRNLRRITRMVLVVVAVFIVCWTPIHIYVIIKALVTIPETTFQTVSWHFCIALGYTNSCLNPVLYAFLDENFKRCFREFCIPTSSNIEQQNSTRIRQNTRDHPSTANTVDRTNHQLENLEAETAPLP

[9] = Plasma stability assay, human plasma; format: in vitro ADME; conditions: 37° C., 2 μM; for % remaining at time point in minutes, 15 min: 15 min (as headed); for % remaining at time point in minutes, 120 min: 120 min (as headed); for % remaining at time point in minutes, 480 min: 480 min (as headed); for % remaining at time point in minutes, 1440 min: 1440 min (as headed)
Description: as §1

[10] = Plasma stability assay, rat plasma; format: in vitro ADME; conditions: 37° C., 10 μM
[11] = Rat pharmacokinetic studies, intramuscular; format: in vivo, male Sprague Dawley Rats; conditions: rat IM
Description: The purpose of this study is to determine the pharmacokinetics of test compounds in plasma, following intramuscular administration to male Sprague Dawley Rats (n=3, unless otherwise specified).
The dose formulation of 400 mg base equivalents/ml in sesame oil+1% benzyl alcohol (unless otherwise specified) was administered by intramuscular injection. The dose volume was determined by the animals' body weight determined on the morning of dosing day.
Each collected blood sample was centrifuged for 4 minutes at 4° C. and 10000 rpm for plasma collection. Plasma was collected and transferred into a pre-labeled PP tube in dry ice at each time point and precipitated immediately using ACN at a ratio of 1:4 (plasma:ACN). Centrifuged again (10 minutes, 12000 rpm) and obtain the supernatant.
After terminal collection, all supernatant was stored at approximately −80° C. until bioanalysis.
LC-MS/MS methods for the quantitative determination of test compound in biological matrix were developed. […] The sample analysis was performed concurrently with a set of calibration standards and two sets of QC samples using the LC-MS/MS method.
Plasma concentration versus time data was analyzed by non-compartmental approaches using the Phoenix WinNonlin 6.3 software program. Cmax, Tmax, T1/2, AUC(0-t), AUC(0-inf), MRT(0-t), MRT(0-inf) and graphs of plasma concentration versus time profile were prepared.

[12] = Dog pharmacokinetic studies, deep intramuscular; format: in vivo, Beagle dogs; conditions: dog IM, Sesame oil + 1% Benzyl Alcohol
[13] = Liver S9 fraction stability, human; format: in vitro ADME; conditions: 1.0 mg/ml S9 protein, 2 μM, 37° C.
Description: as §2

[14] = biological target: T3, DOR (Homo sapiens, UniProt P41143); assay: Opioid receptor binding assay, DOR ([3H]-DADLE); conditions: DOR, MaxDose 10000 nM
T3 construct: expressed in transfected cells; membranes prepared from them
T3 sequence (P41143 whole entry): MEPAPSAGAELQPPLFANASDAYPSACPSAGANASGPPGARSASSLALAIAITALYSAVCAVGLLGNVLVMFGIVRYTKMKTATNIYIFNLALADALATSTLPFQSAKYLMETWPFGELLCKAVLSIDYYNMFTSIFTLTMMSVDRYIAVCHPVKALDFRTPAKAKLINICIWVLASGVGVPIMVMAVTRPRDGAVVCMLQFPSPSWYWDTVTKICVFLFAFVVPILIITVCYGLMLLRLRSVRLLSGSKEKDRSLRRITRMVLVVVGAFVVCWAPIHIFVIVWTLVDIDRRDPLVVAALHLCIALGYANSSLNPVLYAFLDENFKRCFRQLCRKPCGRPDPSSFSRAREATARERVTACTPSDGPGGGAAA

[15] = 80 mg/kg, Sesame oil + 1% Benzyl Alcohol
[16] = 123 mg/kg, Sesame oil + 1% Benzyl Alcohol
[17] = 165 mg/kg, Sesame oil + 1% Benzyl Alcohol
[18] = 80 mg/kg, Cottonseed + 1% Benzyl Alcohol
[19] = 123 mg/kg, Cottonseed oil + 1% Benzyl Alcohol

| Compound | Approximate Solubility (mg/mL) in Excipient: Sesame oil ([2]; obs. temp. 40 °C) | % remaining at time point in minutes, 0 min [3] | % remaining at time point in minutes, 15 min [3] | % remaining at time point in minutes, 120 min [3] | % remaining at time point in minutes, 480 min [3] | % remaining at time point in minutes, 1440 min [3] | % remaining at time point in minutes, 0 min [4] | % remaining at time point in minutes, 15 min [4] | % remaining at time point in minutes, 120 min [4] | % remaining at time point in minutes, 480 min [4] | % remaining at time point in minutes, 1440 min [4] | Liver S9 Fraction Stability % remaining at 60 minutes, Dog [5] | Liver S9 Fraction Stability % remaining at 60 minutes, Monkey [6] | %Inh@MaxDose [7] | Approximate Solubility (mg/mL) in Excipient: Sesame oil ([2]; obs. temp. 25 °C) | %Inh@MaxDose [8] | % remaining at time point in minutes, 0 min [9] | % remaining at time point in minutes, 15 min [9] | % remaining at time point in minutes, 120 min [9] | % remaining at time point in minutes, 480 min [9] | also measured |
| --- | --- | --- | --- | --- | --- | --- | --- | --- | --- | --- | --- | --- | --- | --- | --- | --- | --- | --- | --- | --- | --- |
| C=C1CC[C@@]2(O)[C@H]3Cc4ccc(O)c5c4[C@@]2(CCN3CC2CC2)[C@H]1O5 [61 (Nalmefene)] | <25.5 mg/mL | – | – | – | – | – | – | – | – | – | – | – | – | – | – | – | – | – | – | – | Equilibrium solubility (mg/mL) Water ([1]; heating temp. 60 °C): 0.025 mg/mL; Approximate Solubility (mg/mL) in Excipient: Cottonseed oil ([2]; obs. temp. 40 °C): <25.0 mg/mL; Approximate Solubility (mg/mL) in Excipient: Ethanol ([2]; Ethanol, obs. temp. 40 °C): 102 to 137 mg/mL |
| C=C1CC[C@@]2(O)C3Cc4ccc(OC(=O)OCCCCCCCCCCCC)c5c4[C@@]2(CCN3CC2CC2)[C@H]1O5 [Compound 6, (4aS,7aS,12bS)-3-(cyclopropylmethyl)-4a-hydroxy-7-methylene-2,3,4,4a,5,6,7,7a-octahydro-1H-4,12-methanobenzofuro[3,2-e]isoquinolin-9-yl dodecyl carbonate] | – | 100% | 89.1% | 96.9% | 107.2% | 101.2% | 100% | 88.7% | 74.3% | 68.4% | 70.1% | 17.1% | 0% | 99.6% | >386 mg/mL | 102.5% | 100% | 97.6% | 102% | 109.8% | Approximate Solubility (mg/mL) in Excipient: Cottonseed oil ([2]; obs. temp. 25 °C): >397 mg/mL; % remaining at time point in minutes, 1440 min [9]: 115.1%; % remaining at time point in minutes, 0 min [10]: 100%; % remaining at time point in minutes, 15 min [10]: 31.3%; % remaining at time point in minutes, 120 min [10]: 7.6%; % remaining at time point in minutes, 480 min [10]: 4%; % remaining at time point in minutes, 1440 min [10]: 1.6%; AUC0-inf (ng · h/mL) prodrug [11, 15]: 78.9 ng·h/mL; Half-life t1/2 (hour) prodrug [11, 15]: 340 h; AUC0-inf (ng · h/mL) prodrug [11, 16]: 620 ng·h/mL; Half-life t1/2 (hour) prodrug [11, 16]: 213 h; AUC0-inf (ng · h/mL) prodrug [11, 17]: 637 ng·h/mL; Half-life t1/2 (hour) prodrug [11, 17]: 204 h; AUC0-inf (ng · h/mL) prodrug ([12]; 30 mg/kg): 398 ng·h/mL; Half-life t1/2 (hour) prodrug ([12]; 30 mg/kg): 95 h; AUC0-inf (ng · h/mL) prodrug ([12]; 96 mg/kg): 1290 ng·h/mL; Half-life t1/2 (hour) prodrug ([12]; 96 mg/kg): 88 h; Liver S9 Fraction Stability % remaining at 60 minutes, Human [13]: 5.3% |
| C=C1CC[C@@]2(O)C3Cc4ccc(OC(=O)CCCCCCCCCCCCCCCCC)c5c4[C@@]2(CCN3CC2CC2)[C@H]1O5 [Compound 12, (4aS,7aS,12bS)-3-(cyclopropylmethyl)-4a-hydroxy-7-methylene-2,3,4,4a,5,6,7,7a-octahydro-1H-4,12-methanobenzofuro[3,2-e]isoquinolin-9-yl stearate] | >411.1 mg/mL | – | – | – | – | – | – | – | – | – | – | – | – | – | <50 mg/mL | – | – | – | – | – | Equilibrium solubility (mg/mL) Water ([1]; heating temp. 40 °C): 0.026 mg/mL |
| C=C1CC[C@@]2(O)C3Cc4ccc(OCOC(=O)OCCCCCCCCCCCC)c5c4[C@@]2(CCN3CC2CC2)[C@H]1O5 [Compound 24, (((4aS,7aS,12bS)-3-(cyclopropylmethyl)-4a-hydroxy-7-methylene-2,3,4,4a,5,6,7,7a-octahydro-1H-4,12-methanobenzofuro[3,2-e]isoquinolin-9-yl)oxy)methyl dodecyl carbonate] | – | 100% | 94.7% | 104.5% | 115.7% | 116.2% | 100% | 90.7% | 93.5% | 96.2% | 97.8% | 3.6% | 3% | 82.9% | – | 88.7% | 100% | 94% | 102.3% | 105.3% | %Inh@MaxDose [14]: 48%; % remaining at time point in minutes, 1440 min [9]: 112.5%; % remaining at time point in minutes, 0 min [10]: 100%; % remaining at time point in minutes, 15 min [10]: 32%; % remaining at time point in minutes, 120 min [10]: 11.8%; % remaining at time point in minutes, 480 min [10]: 8.2%; % remaining at time point in minutes, 1440 min [10]: 3%; AUC0-inf (ng · h/mL) prodrug [11, 18]: 147 ng·h/mL; Half-life t1/2 (hour) prodrug [11, 18]: 398 h; AUC0-inf (ng · h/mL) prodrug [11, 19]: 547 ng·h/mL; Half-life t1/2 (hour) prodrug [11, 19]: 717 h; AUC0-inf (ng · h/mL) prodrug ([11]; 165 mg/kg, Cottonseed oil + 1% Benzyl Alcohol): 453 ng·h/mL; Liver S9 Fraction Stability % remaining at 60 minutes, Human [13]: 3.5% |
| O=C(CCC1CCCC1)Oc1ccc2c3c1O[C@H]1C(=O)CC[C@@]4(O)C(C2)N(CC2CC2)CC[C@]314 [Compound 43, (4aS,7aR,12bS)-3-(cyclopropylmethyl)-4a-hydroxy-7-oxo-2,3,4,4a,5,6,7,7a-octahydro-1H-4,12-methanobenzofuro[3,2-e]isoquinolin-9-yl 3-cyclopentylpropanoate] | – | – | – | – | – | – | – | – | – | – | – | – | – | – | – | – | – | – | – | – | Equilibrium solubility (mg/mL) Water ([1]; heating temp. 40 °C): 0.048 mg/mL |
